In a melting point compilation (Tetko et al.):

| Structure (SMILES) | melting point [°C] |
| --- | --- |
| CCOC(=O)c1cnn(C)c1NC(=O)CCl | 90 to 92 |
| O=C(O)CC(Cc1ccccc1)Cc1ccccc1 | 82 to 84 |
| NC(=O)C1CNc2ccccc21 (configuration not stated) | 150 to 152 |
| O=C1CCc2cc([N+](=O)[O-])ccc2N1 | 201 to 203 |
| Cc1csc(SCc2ccccc2C(=O)O)n1 | 159 to 162 |
| O=C(O)c1ccc(COc2ccccc2Br)cc1 | 185 to 187 |
| CNc1ncc(C(=O)OC)s1 | 115 to 117 |
| COc1ccc(Br)c(-c2nnc(CCC(=O)O)o2)c1 | 116 to 118 |
| O=C(O)c1cc(Cl)cc(Cl)c1OC(F)F | 128 to 132 |
| NC(=O)C1CCCN(c2ccc(C(=O)O)cc2)C1 (configuration not stated) | 259 to 261 |
| N#Cc1c(S)nc(CCc2ccccc2)c2c1CCCC2 | 224 to 226 |
| Cc1cnn(Cc2ccc(N)cc2)c1 | 78 to 80 |
| CC(N)c1ccc(S(C)(=O)=O)c(F)c1 (configuration not stated) | 60 to 62 |
| COC1(OC)C2(Cl)C3C(=O)C4C5C(=O)C3C1(Cl)C5(Cl)C42Cl (configuration not stated) | 155 to 157 |
| O=C(Nc1ccncc1)OCC(F)(F)F | 193 to 195 |
| COc1ccc(C(=O)O)cc1N1CCNC1=O | 246 to 248 |
| Cn1c(S)nnc1-c1ccc(Cl)cc1 | 113 to 115 |
| CC(O)CNc1nc2ccccc2[nH]1 (configuration not stated) | 186 to 188 |
| COc1cc(C(=O)O)c([N+](=O)[O-])cc1OCC1CCCO1 (configuration not stated) | 159 to 161 |
| CC(O)c1ccc2c(c1)NC(=O)CO2 (configuration not stated) | 137 to 139 |
| CC(C)(C)Cc1cc(N)on1 | 87 to 89 |
| O=C(O)c1cc(-c2cccnc2)nc2ccccc12 | 323 to 325 |
| CC(Cl)C(=O)Nc1ccc(NC(=O)c2cccs2)cc1 (configuration not stated) | 227 to 229 |
| O=C1CNC(=O)N1Cc1ccc(Cl)c([N+](=O)[O-])c1 | 183 to 185 |

| Structure (SMILES) | melting point [°C] |
| --- | --- |
| CC(=O)Nc1cc(N)ccc1Cl | 200 to 202 |
| O=C1CN(c2ccc(O)cc2)C(=O)N1 | 325 to 327 |
| COc1ccc(CNC(=O)n2ccnc2)cc1OC | 136 to 138 |
| CC(=O)OC(OC(C)=O)c1ccc(S(=O)(=O)Cl)cc1 | 109 to 111 |
| Nc1ccc(CCCC(=O)O)cc1 | 121 to 124 |
| CCc1ncc(C(=O)O)s1 | 151 to 153 |
| CC(C)(C)OC(=O)NCC1CCCCC1N (configuration not stated) | 61 to 63 |
| COc1ccccc1NS(=O)(=O)c1cccc(N)c1 | 35 to 37 |
| CS(=O)(=O)c1cc(C(=O)O)ccc1Br | 236 to 238 |
| Nc1ccc2c(c1)COC2 | 89 to 91 |
| O=C(O)CNC(=O)C1CCCCC1 | 153 to 157 |
| O=C(O)Cc1csc(-c2ccc(F)c(F)c2)n1 | 202 to 204 |
| N#CC=Cc1ccc(C(F)(F)F)cc1 | 89 to 91 |
| CS(=O)(=O)c1cccc(O)c1 | 69 to 71 |
| CCNc1cc(C(=O)O)ccn1 | 291 to 293 |
| O=C(O)CN1N=C(C(F)(F)F)CC1=O | 218 to 220 |
| O=C(O)COc1ccc2c(c1)CCC2 | 154 to 156 |
| O=C(O)C1CC1c1cccc(Br)c1 (configuration not stated) | 115 to 117 |
| O=C(O)CCNC(=O)C1CC1 | 107 to 109 |
| N#Cc1c(Cl)cccc1Oc1cccc(C(=O)O)c1 | 239 to 241 |
| Nc1ncc(Br)nc1C(=O)O | 172 to 174 |
| NS(=O)(=O)c1ccc(-c2cccc(C(F)(F)F)c2)c(C(=O)O)c1 | 181 to 183 |
| Cc1cc(C(=O)CCl)c(C)n1CC(N)=O | 218 to 220 |
| NCc1nnc2n1CC(C(F)(F)F)CC2 (configuration not stated) | 55 to 57 |

| Structure (SMILES) | melting point [°C] |
| --- | --- |
| CCC1(O)CCC(N)CC1 (configuration not stated) | 79 to 81 |
| COc1ccc2c(c1)c(C(=O)O)c(C)n2C1CC1 | 199 to 201 |
| NC(CSCCc1ccccc1)C(=O)O (configuration not stated) | 210 to 212 |
| CCOC(=O)c1csc(Cc2ccc(NC(=O)OC(C)(C)C)cc2)n1 | 135 to 137 |
| O=C(c1ccc(CCl)cc1)N1CCCC1 | 198 to 200 |
| Cc1c[nH]c(=O)n1-c1ccccc1F | 211 to 213 |
| CCOc1ccc(S(N)(=O)=O)cc1OCC | 152 to 154 |
| COc1cccc(-c2nc(CC(=O)O)cs2)c1OC | 156 to 158 |
| CNCc1ccc(OC)c(O)c1 | 141 to 143 |
| O=Cc1cn2cccc(F)c2n1 | 163 to 165 |
| O=S(=O)(c1ccc(Cl)nc1)N1CCOCC1 | 143 to 145 |
| CC1(C)NC(=O)N(CCCC(=O)O)C1=O | 97 to 99 |
| O=C(O)C1CC1c1cccc(F)c1 (configuration not stated) | 78 to 80 |
| CCOC(C)c1nc(C(=O)O)cs1 (configuration not stated) | 61 to 63 |
| CNc1ncc2c(n1)-c1ccccc1SC2 | 123 to 125 |
| CCN(Cc1ccccc1N)C(C)=O | 79 to 81 |
| O=C(NC1CCC(O)CC1)C(F)(F)F (configuration not stated) | 186 to 188 |
| O=S(=O)(Cl)c1c[nH]cn1 | 164 to 166 |
| ClCc1noc(-c2ccc(Cl)cc2)n1 | 79 to 81 |
| C1=C(c2c[nH]c3ncccc23)CCNC1 | 181 to 183 |
| O=C(CCl)c1cc([N+](=O)[O-])c[nH]1 | 199 to 201 |
| N#Cc1ccc(Oc2ccc(Cl)cc2)c(F)c1 | 67 to 69 |
| CN(C)c1nccc(C=O)n1 | 50 to 52 |
| Cc1ccc(S(N)(=O)=O)cc1C | 117 to 119 |
